This is an account of results in patent US10316035B2, “Triazolopyridine inhibitors of myeloperoxidase” (BRISTOL-MYERS SQUIBB COMPANY, priority 2015, dated 2019).

Structures are written as SMILES.

One may read the IC50 as the midpoint of a concentration-inhibition curve.

The target of the test is T1, myeloperoxidase (MPO) (Homo sapiens, UniProt P05164).
T1 sequence (P05164 49-745): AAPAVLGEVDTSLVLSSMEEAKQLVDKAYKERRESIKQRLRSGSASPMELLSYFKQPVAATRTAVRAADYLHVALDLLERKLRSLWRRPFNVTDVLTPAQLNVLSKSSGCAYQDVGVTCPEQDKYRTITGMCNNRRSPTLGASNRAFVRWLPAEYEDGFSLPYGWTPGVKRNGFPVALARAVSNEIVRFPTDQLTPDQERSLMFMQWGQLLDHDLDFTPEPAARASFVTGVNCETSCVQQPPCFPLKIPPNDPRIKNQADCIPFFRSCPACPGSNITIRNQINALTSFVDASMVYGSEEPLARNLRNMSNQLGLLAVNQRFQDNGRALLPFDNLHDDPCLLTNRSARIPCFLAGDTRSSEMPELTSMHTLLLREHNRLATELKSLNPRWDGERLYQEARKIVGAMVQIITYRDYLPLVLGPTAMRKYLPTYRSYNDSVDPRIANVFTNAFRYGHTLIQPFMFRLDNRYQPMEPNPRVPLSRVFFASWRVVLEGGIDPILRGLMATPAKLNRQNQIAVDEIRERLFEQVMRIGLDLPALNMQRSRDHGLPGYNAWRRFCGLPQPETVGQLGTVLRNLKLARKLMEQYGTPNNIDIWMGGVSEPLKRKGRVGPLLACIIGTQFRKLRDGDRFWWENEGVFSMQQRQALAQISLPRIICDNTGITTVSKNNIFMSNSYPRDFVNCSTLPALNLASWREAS
The experiment in a line: MPO peroxidation assay (Amplex Red assay). The class given is biochemical. To be noted: MPO peroxidation, potency range class; read-out: Amplex Red IC50. The essentials:
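MPO (200 pM) with 40 nM H2O2 was preincubated 10 min at room temperature with inhibitor in 100 mM KPi pH 7.4. A mix of Amplex Red (200 μM) and H2O2 (10 mM) was then added and resorufin fluorescence read kinetically for 15 min. Slopes over 180–540 s gave % inhibition and IC50 via a four-parameter Hill fit.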
`Nc1cc(OCc2c(F)cc(-n3ccnc3)cc2F)c2nn[nH]c2n1` [Example 279, 7-((2,6-difluoro-4-(1H-imidazol-1-yl)benzyl)oxy)-3H-[1,2,3]triazolo[4,5-b] pyridin-5-amine]: the IC50 lay within 0.101 to 0.999 µM.

`CS(=O)(=O)c1cc(-n2ccnc2)ccc1COc1cc(N)nc2[nH]nnc12` [Example 280, 7-((4-(1H-imidazol-1-yl)-2-(methylsulfonyl)benzyl)oxy)-3H-[1,2,3]triazolo[4,5-b] pyridin-5-amine]: the IC50 was in the range of 0.101 to 0.999 µM. Take `Nc1cc(OCc2c(F)cc(-n3ncc4ccccc43)cc2F)c2nn[nH]c2n1` [Example 281, 7-((2,6-difluoro-4-(1H-indazol-1-yl)benzyl)oxy)-3H-[1,2,3]triazolo[4,5-b]pyridin-5-amine]: the IC50 was in the range of 0.001 to 0.1 µM. Take `CS(=O)(=O)c1cc(-n2ncc3ccccc32)ccc1COc1cc(N)nc2[nH]nnc12` [Example 282, 7-((4-(1H-indazol-1-yl)-2-(methylsulfonyl)benzyl)oxy)-3H-[1,2,3]triazol[4,5-b] pyridin-5-amine]: the IC50 lay in the range of 0.001 to 0.1 µM. Next, `Nc1cc(OCc2ccc(-c3cccnc3)cc2OC(F)(F)F)c2nn[nH]c2n1` [Example 285, 7-((4-(Pyridin-3-yl)-2-(trifluoromethoxy)benzyl)oxy)-3H-[1,2,3]triazolo[4,5-b]pyridin-5-amine]: 0.001 to 0.1 µM; `CNS(=O)(=O)c1ccc(-c2ccc(COc3cc(N)nc4[nH]nnc34)c(OC(F)(F)F)c2)cc1` [Example 286, 4′-(((5-amino-3H-[1,2,3]triazolo[4,5-b]pyridin-7-yl)oxy)methyl)-N-methyl-3′-(trifluoromethoxy)-[1,1′-biphenyl]-4-sulfonamide]: 0.001 to 0.1 µM; `COc1ncc(-c2ccc(COc3cc(N)nc4[nH]nnc34)c(OC(F)(F)F)c2)cn1` [Example 288, 7-((4-(2-methoxypyrimidin-5-yl)-2-(trifluoromethoxy)benzyl)oxy)-3H-[1,2,3] triazolo[4,5-b]pyridin-5-amine]: 0.101 to 0.999 µM. Next, `CSc1ccc(-c2ccc(COc3cc(N)nc4[nH]nnc34)c(OC(F)(F)F)c2)cn1` [Example 289, 7-((4-(6-(methylthio)pyridin-3-yl)-2-(trifluoromethoxy)benzyl)oxy)-3H-[1,2,3] triazolo[4,5-b]pyridin-5-amine]: 0.001 to 0.1 µM; `COc1ccc(-c2ccc(COc3cc(N)nc4[nH]nnc34)c(OC(F)(F)F)c2)cn1` [Example 290, 7-((4-(6-methoxypyridin-3-yl)-2-(trifluoromethoxy)benzyl)oxy)-3H-[1,2,3] triazolo[4,5-b]pyridin-5-amine]: 0.001 to 0.1 µM; `Nc1ccc(-c2ccc(COc3cc(N)nc4[nH]nnc34)c(OC(F)(F)F)c2)cn1` [Example 291, 7-((4-(6-aminopyridin-3-yl)-2-(trifluoromethoxy)benzyl)oxy)-3H-[1,2,3]triazolo[4,5-b] pyridin-5-amine]: 0.001 to 0.1 µM. Next, `N#Cc1ccc(-c2ccc(COc3cc(N)nc4[nH]nnc34)c(OC(F)(F)F)c2)cn1` [Example 292, 5-(4-(((5-amino-3H-[1,2,3]triazolo[4,5-b]pyridin-7-yl)oxy)methyl)-3-(trifluoromethoxy)phenyl)picolinonitrile]: 0.001 to 0.1 µM. In the case of `CC(C)Oc1ccc(-c2ccc(COc3cc(N)nc4[nH]nnc34)c(OC(F)(F)F)c2)cn1` [Example 293, 7-((4-(6-isopropoxypyridin-3-yl)-2-(trifluoromethoxy)benzyl)oxy)-3H-[1,2,3] triazolo[4,5-b]pyridin-5-amine], the IC50 fell in the range of 0.101 to 0.999 µM. Next, `CS(=O)(=O)c1cncc(-c2ccc(COc3cc(N)nc4[nH]nnc34)c(OC(F)(F)F)c2)c1` [Example 294, 7-((4-(5-(methylsulfonyl)pyridin-3-yl)-2-(trifluoromethoxy)benzyl)oxy)-3H-[1,2,3] triazolo[4,5-b]pyridin-5-amine]: 0.101 to 0.999 µM; `CS(=O)(=O)N1CCN(c2ccc(-c3ccc(COc4cc(N)nc5[nH]nnc45)c(OC(F)(F)F)c3)cn2)CC1` [Example 295, 7-((4-(6-(4-(methylsulfonyl)piperazin-1-yl)pyridin-3-yl)-2-(trifluoromethoxy)benzyl)oxy)-3H-[1,2,3] triazolo[4,5-b]pyridin-5-amine]: 0.101 to 0.999 µM; `Nc1cc(OCc2ccc(-c3ccc(CO)nc3)cc2OC(F)(F)F)c2nn[nH]c2n1` [Example 296, (5-(4-(((5-amino-3H-[1,2,3]triazolo[4,5-b]pyridin-7-yl)oxy)methyl)-3-(trifluoromethoxy)phenyl)pyridin-2-yl)methanol]: 0.001 to 0.1 µM.

On to `Nc1cc(OCc2ccc(-c3ccc(N4CCNCC4)nc3)cc2OC(F)(F)F)c2nn[nH]c2n1` [Example 297, 7-((4-(6-(piperazin-1-yl)pyridin-3-yl)-2-(trifluoromethoxy)benzyl)oxy)-3H-[1,2,3] triazolo[4,5-b]pyridin-5-amine], for which the IC50 lay in the range of 0.001 to 0.1 µM. Next, `CN1CCN(c2cc(-c3ccc(COc4cc(N)nc5[nH]nnc45)c(OC(F)(F)F)c3)ccn2)CC1` [Example 299, 7-((4-(2-(4-methylpiperazin-1-yl)pyridin-4-yl)-2-(trifluoromethoxy)benzyl)oxy)-3H-[1,2,3] triazolo[4,5-b]pyridin-5-amine]: 0.001 to 0.1 µM; `CN1CCN(c2ccc(-c3ccc(COc4cc(N)nc5[nH]nnc45)c(OC(F)(F)F)c3)cn2)CC1` [Example 300, 7-((4-(6-(4-methylpiperazin-1-yl)pyridin-3-yl)-2-(trifluoromethoxy)benzyl)oxy)-3H-[1,2,3] triazolo[4,5-b]pyridin-5-amine]: 0.001 to 0.1 µM. Then `Nc1cc(OCc2ccc(-c3cccc(S(N)(=O)=O)c3)cc2OC(F)(F)F)c2nn[nH]c2n1` [Example 301, 4′-(((5-amino-3H-[1,2,3]triazolo[4,5-b]pyridin-7-yl)oxy)methyl)-3′-(trifluoromethoxy)-[1,1′-biphenyl]-3-sulfonamide], with 0.001 to 0.1 µM; and `Nc1cc(OCc2ccc(-c3ccc(Cl)nc3)cc2OC(F)(F)F)c2nn[nH]c2n1` [Example 302, 7-((4-(6-chloropyridin-3-yl)-2-(trifluoromethoxy)benzyl)oxy)-3H-[1,2,3] triazolo[4,5-b]pyridin-5-amine], with 0.001 to 0.1 µM.

`Nc1cc(OCc2ccc(-c3ccc(N4CCOCC4)nc3)cc2OC(F)(F)F)c2nn[nH]c2n1` [Example 303, 7-((4-(6-morpholinopyridin-3-yl)-2-(trifluoromethoxy)benzyl)oxy)-3H-[1,2,3] triazolo[4,5-b]pyridin-5-amine]: the IC50 lay within 0.001 to 0.1 µM. Then `Nc1cc(OCc2ccc(-c3ccnc(O)c3)cc2OC(F)(F)F)c2nn[nH]c2n1` [Example 304, 4-(4-(((5-amino-3H-[1,2,3]triazolo[4,5-b]pyridin-7-yl)oxy)methyl)-3-(trifluoromethoxy)phenyl)pyridin-2-ol], with 0.001 to 0.1 µM; and `Nc1cc(OCc2ccc(-c3ccc(O)nc3)cc2OC(F)(F)F)c2nn[nH]c2n1` [Example 307, 5-(4-(((5-amino-3H-[1,2,3]triazolo[4,5-b]pyridin-7-yl)oxy)methyl)-3-(trifluoromethoxy)phenyl)pyridin-2-ol], with 0.001 to 0.1 µM; and `Nc1cc(OCc2ccc(-c3cncc(F)c3)cc2OC(F)(F)F)c2nn[nH]c2n1` [Example 308, 7-((4-(5-fluoropyridin-3-yl)-2-(trifluoromethoxy)benzyl)oxy)-3H-[1,2,3] triazolo[4,5-b]pyridin-5-amine], with 0.001 to 0.1 µM.
